What was measured:
[1] = biological target: T1, SGLT1 (Homo sapiens, UniProt P13866); assay: 14C-AMG uptake in BHK cells transfected with SGLT1; format: cell-based; conditions: 50 μM AMG, 37° C., 90 min
T1 construct: expressed in transfected cells
T1 sequence (P13866 1-664): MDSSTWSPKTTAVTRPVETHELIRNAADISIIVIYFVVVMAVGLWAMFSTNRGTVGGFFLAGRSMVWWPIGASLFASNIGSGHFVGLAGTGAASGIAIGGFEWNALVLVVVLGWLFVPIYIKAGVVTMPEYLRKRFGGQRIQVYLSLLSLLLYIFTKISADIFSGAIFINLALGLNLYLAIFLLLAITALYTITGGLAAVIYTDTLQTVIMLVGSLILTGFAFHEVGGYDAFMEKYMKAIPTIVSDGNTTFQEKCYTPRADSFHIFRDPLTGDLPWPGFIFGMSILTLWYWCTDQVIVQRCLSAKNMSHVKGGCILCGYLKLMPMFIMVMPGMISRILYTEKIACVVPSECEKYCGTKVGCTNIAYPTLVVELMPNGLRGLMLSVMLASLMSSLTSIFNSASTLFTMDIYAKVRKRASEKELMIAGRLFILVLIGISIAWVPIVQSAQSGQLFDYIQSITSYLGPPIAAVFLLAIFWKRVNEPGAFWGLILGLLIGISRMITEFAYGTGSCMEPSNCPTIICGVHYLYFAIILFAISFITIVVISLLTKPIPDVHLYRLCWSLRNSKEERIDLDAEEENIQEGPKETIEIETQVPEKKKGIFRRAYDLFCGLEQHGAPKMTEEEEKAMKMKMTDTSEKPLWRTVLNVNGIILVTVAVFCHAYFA
Source text: (§1) The compounds can be tested for their SGLT inhibition properties by means of BHK cells expressing SGLT1 and SGLT2. The production of the cells and the testing can be carried out as described below.
Construction and Expression of SGLT1 in BHK Cells
To construct the SGLT1 expression vector (KL225), the SLC5A1 gene (homologous to NM_000343) was amplified from a cDNA library using standard PCR technology and cloned over NheI/XhoI sites into the pcDNA3.1 expression vector (Invitrogen) containing neomycin as a selection marker. In this vector, transcription uses the enhancer/promoter of human cytomegalovirus.
(§2) The final vector KL225 together with an additional vector containing a dihydrofolate reductase gene as a selection marker was introduced into cells. Transfection into BHK21 cells (ATCC CCL-10), cultivated in DMEM medium (GIBCO/BRL), supplemented with 10% foetal calf serum (FCS) and 20 mM glutamine, was carried out using calcium phosphate transfections according to Graham, F. L. and van der Ebb, A. J. (1973), Virology 52: 456 with 5-20 μg of uncut plasmids for 10^7 cells. Stable transfectants were selected in medium containing 1 mg/ml of G418 (GIBCO/BRL) and 20-5000 nM methotrexate as final concentration, where only cells which expressed the neomycin gene and overexpressed the dhfr gene were able to grow. After growth for 2-3 weeks, the cells were cloned (0.5 cells/well) and the clones were investigated for SGLT expression in radioactivity uptake tests.
(§3) Method of SGLT1/2 Activity Measurement
(§4) The uptake of ^14C-α-methyl-D-glucopyranoside (AMG) in, for example, Xenopus oocytes injected with the corresponding cRNA has been described in principle (for example Wen-Sen Lee et al. (1994), J. Biol. Chem. 269, 12032-12039; Guofeng You et al. (1995), J. Biol. Chem. 270, 29365-29371).
(§5) A 96-well cell-based assay was developed and adapted to HTS requirements:
(§6) BHK cells (transfected with SGLT1 or SGLT2) were seeded into 96-well microtitre plates (Cultureplates, Perkin Elmer). After at least 24 h, medium was removed, and the cell layer was washed with assay buffer (140 mM NaCl, 2 mM KCl, 1 mM CaCl2, 1 mM MgCl2, 10 mM HEPES, 5 mM Tris, adjusted to pH 7.4 using 1 M KOH). After addition of 40 μl of assay buffer, 50 μl of AMG (50 μM for SGLT1 and 2 mM for SGLT2) in the presence or absence of compounds, the cells were incubated in a total volume of 100 μl at 37° C. for 90 min. Supernatant was removed by suction and discarded. Cells were washed and lysed by addition of 50 μl of water. After 10 min at room temperature, 200 μl of Micrsoscint 40 (Perkin Elmer) were added. The radioactivity was counted in a Topcount microplate scintillation counter (Perkin Elmer). The non-specific uptake was determined in sodium-free assay buffer (266 mM sucrose, 2 mM KCl, 1 mM CaCl2, 1 mM MgCl2, 10 mM HEPES, 5 mM Tris, adjusted to pH 7.4 using 1 M KOH).

[2] = biological target: T2, SGLT2 (Homo sapiens, UniProt P31639); assay: 14C-AMG uptake in BHK cells transfected with SGLT2; format: cell-based; conditions: 2 mM AMG, 37° C., 90 min
T2 construct: expressed in transfected cells
T2 sequence (P31639 1-672): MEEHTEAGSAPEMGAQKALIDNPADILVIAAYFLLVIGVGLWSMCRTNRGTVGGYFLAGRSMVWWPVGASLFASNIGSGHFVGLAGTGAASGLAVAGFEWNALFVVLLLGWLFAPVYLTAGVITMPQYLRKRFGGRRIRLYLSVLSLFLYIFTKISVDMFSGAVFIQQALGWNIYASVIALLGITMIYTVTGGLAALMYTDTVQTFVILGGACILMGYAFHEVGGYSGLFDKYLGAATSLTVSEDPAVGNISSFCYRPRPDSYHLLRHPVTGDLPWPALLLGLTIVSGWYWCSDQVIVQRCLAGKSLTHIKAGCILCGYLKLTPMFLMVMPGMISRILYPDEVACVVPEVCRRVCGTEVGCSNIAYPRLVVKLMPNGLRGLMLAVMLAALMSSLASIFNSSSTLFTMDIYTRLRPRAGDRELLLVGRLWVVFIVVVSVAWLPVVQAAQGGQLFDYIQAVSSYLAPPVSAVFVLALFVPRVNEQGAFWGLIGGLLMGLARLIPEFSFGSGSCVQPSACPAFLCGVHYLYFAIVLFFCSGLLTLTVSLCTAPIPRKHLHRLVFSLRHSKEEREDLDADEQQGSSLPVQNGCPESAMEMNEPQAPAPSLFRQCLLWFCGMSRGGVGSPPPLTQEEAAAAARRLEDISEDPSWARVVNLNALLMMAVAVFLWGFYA
Source text: as §1
Construction and Expression of SGLT2 in BHK Cells
To construct the SGLT2 expression vector (KL224), the SLC5A2 gene (homologous to NM_003041) was amplified from a cDNA library using standard PCR technology and cloned over NheI/XhoI sites into PCI-neo expression vector (Promega) containing neomycin as a selection marker. In this vector, transcription uses the enhancer/promoter of human cytomegalovirus and the SV40 polyadenylation signal.
as §2, with “KL224” for “KL225”
as §3, §4, §5, §6

Compound	IC50 [1] [µM]	IC50 [2] [nM]
COc1ccc(C2CCCc3ccc([C@@H]4O[C@H](CO)[C@@H](O)[C@H](O)[C@H]4O)cc32)cc1 (stereo partly drawn) [Compound A5, 7-(β-D-Glucopyranos-1-yl)-1-(4-methoxyphenyl)-1,2,3,4-tetrahydro-naphthalene]	> 10	10 to 1000
CCOc1ccc(-n2ccc3ccc([C@@H]4O[C@H](CO)[C@@H](O)[C@H](O)[C@H]4O)cc32)cc1 [Compound A12, 6-(β-D-Glucopyranos-1-yl)-1-(4-ethoxyphenyl)indole]	> 10	> 10000
5-(β-D-Glucopyranos-1-yl)-3-(4-methoxyphenyl)benzofuran [Compound A7]	> 10	1000 to 10000
COc1ccc([C@@H]2CCc3ccc([C@@H]4O[C@H](CO)[C@@H](O)[C@H](O)[C@H]4O)cc32)cc1 [Compound A2, 6-(β-D-glucopyranos-1-yl)-1S-(4-methoxyphenyl)indane]	> 10	10 to 1000
6-(β-D-glucopyranos-1-yl)-1R-(4-methoxyphenyl)indane [Compound A3]	> 10	> 10000
5-(β-D-glucopyranos-1-yl)-2-(4-methoxyphenyl)benzofuran [Compound A8]	> 10	> 10000
CCOc1ccc(C2CCc3ccc([C@@H]4O[C@H](CO)[C@@H](O)[C@H](O)[C@H]4O)cc32)cc1 (stereo partly drawn) [Compound A4, 6-(β-D-Glucopyranos-1-yl)-1-(4-ethoxyphenyl)indane]	> 10	10 to 1000
COc1ccc(C2COc3ccc([C@@H]4O[C@H](CO)[C@@H](O)[C@H](O)[C@H]4O)cc32)cc1 (stereo partly drawn) [Compound A9, 5-(β-D-Glucopyranos-1-yl)-3-(4-methoxyphenyl)-2,3-dihydrobenzofuran]	> 10	10 to 1000
COc1ccc(C2CCc3ccc([C@@H]4O[C@H](CO)[C@@H](O)[C@H](O)[C@H]4O)cc32)cc1 (stereo partly drawn) [Compound A1, 6-(β-D-glucopyranos-1-yl)-1-(4-methoxyphenyl)indane]	> 10	10 to 1000
COc1ccc([C@@H]2COc3ccc([C@@H]4O[C@H](CO)[C@@H](O)[C@H](O)[C@H]4O)cc32)cc1 [Compound A13]	> 10	10 to 1000
6-(β-D-glucopyranos-1-yl)-3R-(4-methoxyphenyl)indane [Compound A14]	> 10	> 10000
COc1ccc(C2=CCCc3ccc([C@]4(OC)O[C@H](CO)[C@@H](O)[C@H](O)[C@H]4O)cc32)cc1 [Compound A6, 7-(1-Methoxy-D-glucopyranos-1-yl)-1-(4-methoxyphenyl)-3,4-dihydronaphthalene]	> 10	> 10000
